Each molecule was assayed on bone resorption (parietal bone) (assay: Bone resorption-inhibitory activity (45Ca release from newborn mouse parietal bone, hPTH (1-34) stimulated, method of Raisz)). Conditions: 5 μM, Table 20, average of four pairs, read-out: bone resorption-inhibitory action, % against control.
Assay type: cell-based, ICR mouse
Excerpt: The method for determining the bone resorption-inhibitory activity of the Compound (I) and the results are shown in the following.
Bone resorption-inhibitory activity
The determination of the bone resorption-inhibitory activity basically followed the method of Raisz [J. Clin. Invest., vol. 44, pp. 103-116 (1965)].
A 1-2 days old new born ICR mouse was intraperitoneally administered with 1.5μ Ci ^45 Ca (CaCl2 solution of isotope of calcium) and parietal bone was asceptically removed the next day. The parietal bone was split into two along the central sature line and one of them was used as a control and the other was used for the experiment. The bone was preincubated in 0.5 ml of a BGJb medium (Fitton-Jackson modification, GIBCO Laboratories, U.S.A.) added with the test compound to a concentration of 5 μM or 20 μM and bovine serum albumin (1 mg/ml) at 37° C. for 2 days, and further incubated in the aforementioned medium containing 50 nM hPTH (1-34) for 3 days. After the incubation, the radioactivity of ^45 Ca in the medium and in the bone was measured and the ratio (%) of ^45 Ca released from the bone into the medium was calculated. [formula]
Using the bone obtained from the same mouse and treated in the same manner without the test compound as a control, the ratio (%) against the control was calculated according to the following equation. [formula]
The average of these values obtained from four pairs from each group was calculated.

| Structure (SMILES) | inhibition at 5 µM [%] |
| --- | --- |
| CCc1cc2c(s1)-n1c(C)nnc1C(NC(=O)Nc1cccc(C)c1)N=C2c1ccc(C)cc1 (centres unmarked) [compound 86] | 30.3 |
| CCc1cc2c(s1)-n1c(C)nnc1C(NC(=O)Nc1cccc(C)c1)N=C2c1ccccc1 (centres unmarked) [compound 88] | 33.8 |
| CCCCCCc1cc2c(s1)-n1c(C)nnc1C(NC(=O)Nc1cccc(C)c1)N=C2c1ccc(Cl)cc1 (centres unmarked) [compound 78] | 45.4 |
| Cc1cccc(NC(=O)NC2N=C(c3ccccc3Cl)c3c(sc(C)c3C)-n3c(C)nnc32)c1 (centres unmarked) [compound 83] | 35 |
| CCc1cc2c(s1)-n1c(C)nnc1C(NC(=O)Nc1ccc(Cl)cc1)N=C2c1ccc(Cl)cc1 (centres unmarked) [compound 75] | 47.7 |
| CCc1cc2c(s1)-n1c(C)nnc1C(NC(=O)Nc1ccccc1OC)N=C2c1ccc(Cl)cc1 (centres unmarked) [compound 90] | 34.2 |
| CCc1cc2c(s1)-n1c(C3CCCCC3)nnc1C(NC(=O)Nc1ccccc1OC)N=C2c1ccccc1Cl (centres unmarked) [compound 100] | 55.5 |
| CCc1cc2c(s1)-n1c(C)nnc1C(NC(=O)Nc1cccc(OC)c1)N=C2c1ccc(Cl)cc1 (centres unmarked) [compound 76] | 29.5 |
| CCc1cc2c(s1)-n1c(C)nnc1C(NC(=S)Nc1ccccc1)N=C2c1ccccc1Cl (centres unmarked) [compound 93] | 63.5 |
| CCc1cc2c(s1)-n1c(C3CCCCC3)nnc1C(NC(=O)Nc1cccc(C)c1)N=C2c1ccccc1Cl (centres unmarked) [compound 84] | 65.3 |

Same assay, conditions: 20 μM, Table 20, average of four pairs, read-out: bone resorption-inhibitory action, % against control

| Structure (SMILES) | inhibition at 20 µM [%] |
| --- | --- |
| CCc1cc2c(s1)-n1c(C)nnc1C(NC(=O)c1ccccc1)N=C2c1ccccc1Cl (centres unmarked) [compound 50] | 26.4 |
| Cc1nnc2n1-c1sc3c(c1C(c1ccccc1Cl)=NC2C)CC(C(=O)N1CCOCC1)C3 (centres unmarked) [compound 54] | 31.7 |
| Cc1nnc2n1-c1sc(CCc3ccc(CC(C)C)cc3)cc1C(c1ccccc1Cl)OC2 (centres unmarked) [compound 324] | 33.1 |
| Cc1nnc2n1-c1sc(CCc3ccc(CC(C)C)cc3)cc1C(c1ccc(OCCN(C)C)cc1)=NC2 [compound 32] | 16 |
| CCc1cc2c(s1)-n1c(C)nnc1C(NC(=O)Cc1ccccc1)N=C2c1ccccc1Cl (centres unmarked) [compound 255] | 54.3 |
| CCc1cc2c(s1)-n1c(C)nnc1C(CC(=O)Nc1ccccc1OC)N=C2c1ccc(Cl)cc1 (centres unmarked) [compound 250] | 27.3 |
| Cc1nnc2n1-c1sc(CCCc3ccc(CC(C)C)cc3)cc1C(c1ccccc1Cl)=NC2 [compound 11] | 23.4 |
| CCc1cc2c(s1)-n1c(C)nnc1C(NS(=O)(=O)c1ccc(C)cc1)N=C2c1ccc(Cl)cc1 (centres unmarked) [compound 254] | 32.5 |
| CCCN(CCC)C(=O)C1Cc2sc3c(c2C1)C(c1ccccc1Cl)=NCc1nnc(C)n1-3 (centres unmarked) [compound 53] | 73.5 |
| CCc1cc2c(s1)-n1c(C)nnc1C(NC(=O)Nc1cccc(C)c1)N=C2c1ccccc1Cl (centres unmarked) [compound 51] | 26.9 |
| Cc1nnc2n1-c1sc(CCc3ccc(CC(C)C)cc3)cc1C(c1ccccc1Cl)=NC2CC(C)C (centres unmarked) [compound 43] | 21.2 |
| Cc1nnc2n1-c1sc(CCc3ccc(CC(C)C)cc3)cc1C(c1ccccc1Cl)=NC2Cc1ccccc1 (centres unmarked) [compound 46] | 21.1 |
| CCCCCCCCc1ccc(CCc2cc3c(s2)-n2c(C)nnc2CN=C3c2ccccc2Cl)cc1 [compound 29] | 16.4 |
| CCCCCCCCCCCc1nnc2n1-c1sc(CC)cc1C(c1ccc(OCCN(C)C)cc1)OC2 (centres unmarked) [compound 354] | 23.2 |
| CCCCCCCCCCCc1nnc2n1-c1sc(CC)cc1C(c1ccc(C)cc1)OC2 (centres unmarked) [compound 357] | 24.7 |
| CCCCCCCCCCCc1nnc2n1-c1sc3c(c1C(c1ccccc1Cl)OC2)CCCC3 (centres unmarked) [compound 307] | 42.4 |
| CC(C)Cc1ccc(CCc2cc3c(s2)N(CCN(C)C)C(=O)CN=C3c2ccccc2Cl)cc1 [compound 64] | 25.2 |
| CC(C)Cc1ccc(CCc2cc3c(s2)-n2c(nnc2C(C)(C)C)C(C)N=C3c2ccccc2Cl)cc1 (centres unmarked) [compound 34] | 15.5 |
| CCCCCCCCCCCc1nnc2n1-c1sc(CC)cc1C(c1ccc(O)cc1)OC2 (centres unmarked) [compound 302] | 22.4 |
| CCCCCCCc1nnc2n1-c1sc(CC)cc1C(c1ccc(OC)cc1)OC2 (centres unmarked) [compound 348] | 30.3 |
| CCCCCCCCCCCc1nnc2n1-c1sc(CC)cc1C(c1ccccc1)OC2 (centres unmarked) [compound 304] | 28.6 |
| CCCC1N=C(c2ccc(Cl)cc2)c2cc(CCc3ccc(CC(C)C)cc3)sc2-n2c(C)nnc21 (centres unmarked) [compound 42] | 16.9 |

Same assay, conditions: 20 μM, Table 21, average of four pairs, read-out: bone resorption-inhibitory action, % against control

| Structure (SMILES) | inhibition at 20 µM [%] |
| --- | --- |
| CCCCCCCCCCCc1nnc2n1-c1ccccc1C(c1ccc(Cl)cc1)NC2 (centres unmarked) [compound 515] | 29.9 |
| CCCCCCCCCCCc1nnc2n1-c1ccccc1C(c1ccc(Cl)cc1)OC2 (centres unmarked) [compound 516] | 22.4 |

Same assay, conditions: Table 20, read-out: IC50 (figures in parentheses), bone resorption-inhibitory action

| Structure (SMILES) | IC50 [nM] |
| --- | --- |
| CCc1cc2c(s1)-n1c(C)nnc1C(NC(=O)Nc1ccccc1OC)N=C2c1ccc(Cl)cc1 (centres unmarked) [compound 90] | 250 |

Same assay, conditions: read-out: IC50 (figures in parentheses), bone resorption-inhibitory action

| Structure (SMILES) | IC50 [nM] |
| --- | --- |
| Cc1nnc2n1-c1sc(CCc3ccc(CC(C)C)cc3)cc1C(c1ccccc1Cl)=NC2C (centres unmarked) [compound 9] | 7500 |
| COc1ccccc1NC(=O)NC1N=C(c2ccccc2)c2cc(Cl)ccc2-n2c(C)nnc21 (centres unmarked) [compound 532] | 930 |

Same assay, conditions: read-out: bone resorption-inhibitory action, % against control

| Structure (SMILES) | inhibition at 20 µM [%] |
| --- | --- |
| CCCCCCCCc1cc2c(s1)N(CCN(C)C)C(=O)CN=C2c1ccccc1Cl [compound 62] | 27.4 |
| COc1ccccc1NC(=O)OCC1N=C(c2ccccc2)c2ccccc2-n2c(C)nnc21 (centres unmarked) [compound 509] | 35 |
| Cc1nnc2n1-c1sc(CCc3ccc(CC(C)C)cc3)cc1C(c1ccccc1Cl)=NC2C (centres unmarked) [compound 9] | 23.7 |
| Cc1cccc(NC(=O)OCC2N=C(c3ccccc3)c3ccccc3-n3c(C)nnc32)c1 (centres unmarked) [compound 510] | 28.3 |
| CCCCCCCCCCc1cc2c(s1)-n1c(C)nnc1CN=C2c1ccccc1OC [compound 25] | 17.5 |
| CCCCCCc1cc2c(s1)NC(=O)CN=C2c1ccccc1Cl [compound 60] | 58.6 |
| Cc1nnc2n1-c1ccccc1C(c1ccc(Cl)cc1)=NC2NS(=O)(=O)Cc1ccccc1 (centres unmarked) [compound 507] | 35.6 |
| Cc1cccc(NC(=O)NC2N=C(c3ccc(Cl)cc3)c3ccccc3-n3c(C)nnc32)c1 (centres unmarked) [compound 503] | 30.4 |
| Cc1nnc2n1-c1sc(CCc3ccc(CC(C)C)cc3)cc1C(c1ccc(O)cc1)=NC2 [compound 31] | 26.4 |
| Cc1cccc(NC(=O)NCC2N=C(c3ccc(Cl)cc3)c3ccccc3-n3c(C)nnc32)c1 (centres unmarked) [compound 506] | 32.5 |
| Cc1nnc2n1-c1ccc(Cl)cc1C(c1ccccc1)=NC2 [compound 69] | 21.9 |
| COc1ccccc1NC(=O)NC1N=C(c2ccccc2)c2cc(Cl)ccc2-n2c(C)nnc21 (centres unmarked) [compound 532] | 28.1 |
| Cc1nnc2n1-c1sc(CCC(=O)N3CCOCC3)cc1C(c1ccccc1Cl)=NC2 [compound 19] | 61.7 |
| Cc1nnc2n1-c1sc(CCc3ccc(CC(C)C)cc3)cc1C(c1ccccc1)=NC2 [compound 1] | 30.7 |
| CCCCCCCCCCCCc1cc2c(s1)-n1c(C)nnc1CN=C2c1ccccc1Cl [compound 27] | 17 |
| CCCc1nnc2n1-c1sc(CCc3ccc(CC(C)C)cc3)cc1C(c1ccccc1Cl)=NC2 [compound 35] | 20 |
| CC(C)Cc1ccc(CCc2cc3c(s2)-n2cnnc2CN=C3c2ccccc2Cl)cc1 [compound 6] | 30.2 |

| Structure (SMILES) | inhibition at 20 µM [%] |
| --- | --- |
| CCCCCCCCCCCc1nnc2n1-c1ccccc1C(c1ccc(Cl)cc1)=NC2 [compound 513] | 43.3 |
| CCc1cc2c(s1)-n1c(noc1=O)CN=C2c1ccccc1Cl [compound 66] | 56.3 |
| Cc1nnc2n1-c1ccccc1C(c1ccc(Cl)cc1)=NC2Cc1c[nH]c2ccccc12 (centres unmarked) [compound 508] | 48.1 |
| CCCCCCc1cc2c(s1)-n1c(C)nnc1CN=C2c1ccccc1C [compound 22] | 23.4 |
| CCCCCCCCCCc1ccc2c(c1)C(c1ccccc1)=NC(C)c1nnc(C)n1-2 (centres unmarked) [compound 519] | 21.1 |
| COc1ccccc1NC(=O)NC1N=C(c2ccc(Cl)cc2)c2ccccc2-n2c(C)nnc21 (centres unmarked) [compound 502] | 31.8 |
| Cc1nnc2n1-c1ccccc1C(c1ccc(Cl)cc1)=NC2NC(=O)OCc1ccccc1 (centres unmarked) [compound 504] | 24.6 |
| Clc1ccc2c(c1)C(c1ccccc1Cl)=NCc1nccn1-2 [compound 70] | 50.3 |
| CCOC(=O)C1(NC(=O)Nc2cccc(C)c2)N=C(c2ccc(Cl)cc2)c2ccccc2-n2c(C)nnc21 (centres unmarked) [compound 501] | 29.5 |
| Cc1ccc(S(=O)(=O)OCC2N=C(c3ccccc3)c3ccccc3-n3c(C)nnc32)cc1 (centres unmarked) [compound 518] | 45.4 |
| Cc1nnc2n1-c1ccccc1C(c1ccc(Cl)cc1)=NC2NC(=O)Nc1ccccn1 (centres unmarked) [compound 522] | 32.8 |
| Cc1nnc2n1-c1ccccc1C(c1ccc(Cl)cc1)=NC2NC(=O)Nc1cccnc1 (centres unmarked) [compound 523] | 26.7 |
| COc1ccccc1NC(=O)NCC1N=C(c2ccc(Cl)cc2)c2ccccc2-n2c(C)nnc21 (centres unmarked) [compound 505] | 53.5 |
| Cc1nnc2n1-c1sc(Cc3ccc(CC(C)C)cc3)cc1C(c1ccccc1Cl)=NC2 [compound 28] | 16.5 |
| Cc1nnc2n1-c1ccc(Cl)cc1C(c1ccccc1Cl)=NC2 [compound 68] | 57.5 |
| Cc1nnc2n1-c1sc(CCCN3CCOCC3)cc1C(c1ccccc1Cl)=NC2C (centres unmarked) [compound 40] | 32.8 |
| CC(C)Cc1ccc(CCc2nnc3n2-c2ccccc2C(c2ccc(Cl)cc2)=NC3)cc1 [compound 517] | 47.3 |

From US5593988A, “Therapeutic agent for osteoporosis and diazepine compound” (Yoshitomi Pharmaceutical Industries, Ltd., priority 1991, dated 1997)
